As usually defined, the IC50 is the concentration that gives 50% inhibition.

Structures can show the parent of a compound that is named as a salt.

Consider 32 compounds from publication PMC10082216 (Nature Communications, 2023).

For data set [1], the system named is mature stage V gametocytes (NF54 strain). In words: microbe, parasite or virus in culture. The note with it: for outcome of primary screen (hit definition): 1.11 µM. Type of data set: cell-based, Plasmodium falciparum. As to the method: (§1) Screening was conducted as previously described. Briefly, mature stage V gametocytes (NF54 strain) were cultured in vitro, then exposed to the explored compounds and filtered thereafter through layers of microspheres (microsphiltration)[25],[28]. Stiffening activity was determined by comparing gametocytemia up and downstream from the microsphere layers after filtration of drug-exposed gametocytes in 384-well plates using a vacuum manifold. Gametocytemia was assessed using DNA (Sybr Green) and erythrocyte membrane (CellMask) staining. Killing effect was assessed by MitoTracker staining. We screened two small libraries, specifically the Pathogen Box from the Medicine for Malaria Venture and the Kinase Inhibitors Box from GSK (400 and 350 compounds, respectively, Fig. 1A, B), and furthermore the larger ReFrame repurposing library (12,805 compounds, Fig. 1C).
(§2) The Pathogen Box library (400 compounds, provided by MMV-Medicine for Malaria Ventures, Geneva, Switzerland), the Kinase Inhibitors Box library (350 compounds, provided by GSK-Glaxo SmithKline DDW Unit, Tres Cantos, Spain), and the ReFrame library (12,805 compounds provided by the California Institute for Biomedical Research-Calibr, La Jolla, CA, USA) were used according to the providers’ instructions. DMSO-solubilized compounds (10 mM stock concentration) were loaded in 384-well plates (Seahorse, cat. no. 201035−100). Two columns were left empty for the controls. For each compound, 5 nL were pre-spotted in a single well to reach a final concentration of 1.11 μM. The final volume for each well was 45 μl. Controls were prepared as follows: 22.5 nL of DMSO were loaded in 16 wells as negative controls (0.05% final concentration); 22.5 nL of NITD609 (provided by MMV, Geneva, Switzerland) 1 mM were loaded in 8 wells (0.5 μM final concentration), 17 nL of Calyculin A (Sigma, cat. no. C5552) […] were loaded in 6 wells (75 nM final concentration) and 225 nL of Gentian Violet (MolPort, cat. no. 002-133-551) 10 mM were loaded in the remaining 2 wells (50 μM final concentration). Plates were prepared in triplicate for the Pathogen Box and sextuplicate for the Kinase Inhibitors Box.
(§3) Plasmodium falciparum NF54 strain parasites (used for screening campaign) were cultured at 4% hematocrit in RBCs from informed blood donors (blood group A) as previously described. Parasites were taken from the -80 °C freezer, then rapidly melt for 1 minute in a 37 °C water bath. A saline solution was gently added to avoid the lysis. Firstly, NaCl dissolved at 12% in distilled water (1/5 of the volume measured in the cryovial) and then NaCl dissolved at 1.6% (9 times the cryovial’s volume). After that, fresh RBCs were added to allow parasites re-growth. Infected RBCs were kept in RPMI medium (Sigma-Aldrich, cat. no. R4130), supplemented with 10% of decomplemented human serum, hypoxanthine 50 mg/l (Sigma-Aldrich, cat. no. H9636). Biobank of Castilla y Leon and Centro de Transfusiones de Madrid as providers of human red blood cell concentrates. The production of gametocytes was induced from a 0.5% ring-stage parasitemia (day 0). Medium was changed daily to induce gametocytes differentiation, as previously described. At day 17, gametocytes were concentrated using a density gradient medium (NycoPrep 1.077, Progen cat. no. 1114550)[27]. Parasitemia was adjusted by FACS (SYBR-Green and MitoTracker double staining, 3–5% targeted). Hematocrit was adjusted to 0.5% by adding fresh RBCs and controlled by manual counting in a Neubauer chamber (Celeromics, cat. no. 717810). Finally, the gametocyte suspension was poured (45 μL/well) into the compound-containing 384-well microplate, then incubated 24 hours both for the screening campaign and the dose-response analysis. Both asexual and sexual stages were cultivated in RPMI 1640 supplemented with 25 mM HEPES, 50 mg/L hypoxanthine, 50 μg/mL gentami-cin, 10% pooled heat-inactivated human serum (A^+).

Data set [2] has the same test system. In words: High-throughput screening: killing effect by MitoTracker staining, primary screening at 1.11 µM and dose-response analysis. The format is cell-based, Plasmodium falciparum. The note with it: for IC50: stage V gametocytes NF54, 24 h, dose-response analysis, N/A = not active in dose-response analysis, read-out: Killing IC50. As to the method:
as §1, §2, §3

The nature of data set [3]: Hit scoring on safety in human subjects and pharmacokinetics. The note with it: for Score (PK): peak plasma concentration vs IC50. From the text:
Hits from the ReFrame library were further selected based on safety, preferably oral administration (high score if oral), and potential availability for widespread use.

Where [4] appears, read: Plasmodium falciparum, NF54, 24 h, read-out: Stiffening IC50 (retention).
Setting [5] is: stage V gametocytes NF54, 24 h, dose-response analysis, N/A = not active in dose-response analysis, read-out: Stiffening IC50 (retention).
The mark [6] stands for this setting: Plasmodium falciparum, NF54, 24 h.

Regarding `CC[C@@H](C(=O)O)[C@@H]1O[C@@H]([C@@H](C)[C@H](O)[C@H](C)C(=O)[C@H](CC)[C@H]2O[C@]3(C=C[C@@H](O)[C@]4(CC[C@@](C)([C@H]5CC[C@](O)(CC)[C@H](C)O5)O4)O3)[C@H](C)C[C@@H]2C)[C@@H](C)C[C@@H]1C` [Narasin], the IC50 in data set [1] (setting [4]) is 43000 nM; in data set [2] (Plasmodium falciparum), 46000 nM.

For `CC(C)NC(=N)NC(=N)Nc1ccc(Cl)c(Cl)c1.Cl` [Chlorproguanil hydrochloride], in data set [3], the “Score (safety)” value was found to be 0 and the “Score (PK)” value is listed as 1 (Peak plasma concentration lower than 1/3 IC50 (Score = 1)). In data set [1] (setting [5]), the IC50 stood at 10400 nM.

Consider Oligomycin A, for which the concentration for half-maximal inhibition (IC50) in data set [1] (read-out: Stiffening IC50 (retention), stage V gametocytes NF54, 24 h, dose-response analysis, N/A = not active in dose-response analysis) came to 500 nM.

For `CC(=O)OC[C@H]1O[C@@H]([S-])[C@H](OC(C)=O)[C@@H](OC(C)=O)[C@@H]1OC(C)=O.CCP(CC)CC.[Au+]` [Auranofin], in data set [3], the “Score (safety)” value was 0 and the “Score (PK)” value worked out at 0. The IC50 in data set [1] (setting [5]) stood at 3500 nM. Further, the IC50 in data set [2] came out at 2580 nM.

`COCCn1c2c([n+](Cc3cnccn3)c1C)C(=O)c1ccccc1C2=O` [Sepantronium bromide]: the IC50 came to 1890 nM in data set [1] (setting [4]) and 1350 nM in data set [2] (setting [6]).

Regarding `CNCc1ccc(-c2cc(-c3nc(-c4ccc(S(=O)(=O)C(C)C)cc4)cnc3N)on2)cc1` [VE-822], the IC50 in data set [1] (setting [4]) turned out to be 9500 nM; in data set [2] (setting [6]) it was 710 nM.

Consider `CN(C)c1ccc2nc3ccc(=[N+](C)C)cc-3sc2c1` [Methylthioninium chloride], for which the IC50 came out at 2800 nM in data set [1] (Plasmodium falciparum, NF54, 24 h, read-out: Stiffening IC50 (retention), stage V gametocytes NF54, 24 h, dose-response analysis, N/A = not active in dose-response analysis) and 4850 nM in data set [2] (setting [6]).

In the case of `COc1ccc(-c2ccc3ncc4c(c3c2)n(-c2ccc(N3CCNCC3)c(C(F)(F)F)c2)c(=O)n4C)cn1` [NVP-BGT226], the “Score (safety)” value in data set [3] is on record as 0. Moreover, the “Score (PK)” value in data set [3] is 2 (Peak plasma concentration between 1/3 IC50 and IC50 (Score = 2)). Moreover, the concentration for half-maximal inhibition (IC50) in data set [1] (setting [4]) amounted to 1600 nM; in data set [2] (setting [6]), 13 nM.

As for `C[CH2][Hg][S]c1ccccc1C(=O)[O-].[Na+]` [Thimerosal], the 50% inhibitory concentration (IC50) came to 930 nM in data set [1] (setting [5]) and 1500 nM in data set [2].

For the compound `CN1CC(=O)N2[C@H](c3ccc4c(c3)OCO4)c3[nH]c4ccccc4c3C[C@@H]2C1=O` [tadalafil], the “outcome of primary screen (hit definition)” value in data set [1] is “not captured by the primary screen”.

For the compound `CCCc1nn(C)c2c(=O)[nH]c(-c3cc(S(=O)(=O)N4CCN(C)CC4)ccc3OCC)nc12` [sildenafil], in data set [1], the “outcome of primary screen (hit definition)” value was “not captured by the primary screen”.

As to `COc1cc(N2CCN(C(C)C)CC2)ccc1Nc1nc(Nc2ccc(F)cc2C(N)=O)c2cc[nH]c2n1` [GSK1220512A], the IC50 in data set [1] (setting [4]) is 2320 nM; in data set [2] (setting [6]) it was 17000 nM.

Consider `[O-][n+]1ccccc1SSc1cccc[n+]1[O-]` [Bispyrithione], for which the figures for the IC50 in data set [1] (setting [4]) and in data set [2] (Plasmodium falciparum) were 2350 nM and 920 nM, respectively.

In the case of `COC(=O)[C@@]12OC[C@]34[C@H]([C@@H](O)[C@@H]1O)[C@@]1(C)CC(=O)C(O)=C(C)[C@@H]1C[C@H]3OC(=O)[C@H](OC(=O)/C=C(\C)C(C)C)[C@@H]24` [Bruceantin], the results for the IC50 in data set [1] (setting [4]) and in data set [2] (Plasmodium falciparum) were 20 nM and 160 nM, respectively.

`CCCCCCCCCCCCCC[n+]1ccc(C)cc1` [Myristyl-gamma picolinium chloride]: the IC50 in data set [1] (setting [5]) was determined as 7200 nM; in data set [2] it was 4150 nM.

As to `CCCC1(CCC)CCC2(CCN(CCCN(CC)CC)C2)CC1.O=C(O)/C=C\C(=O)O.O=C(O)/C=C\C(=O)O` [Atiprimod dimaleate], in data set [3], the “Score (safety)” value amounted to 0 and the “Score (PK)” value was found to be 0. In data set [2], the IC50 was determined as 6670 nM.

As to `CC[C@H]1/C=C/C=C/C[C@@H](C)[C@H](O)[C@@](C)(O)C(=O)[C@@H](C)[C@H](O)[C@@H](C)C(=O)[C@@H](C)[C@H](O)[C@@H](C)/C=C/C(=O)O[C@@H]2[C@H](C)[C@H](CC1)O[C@@]1(O[C@@H](C[C@@H](C)O)[C@@H](C)CC1=O)[C@H]2C` [Oligomycin B], the IC50 stood at 1550 nM in data set [1] (setting [5]) and 5800 nM in data set [2].

For `CCCCCCCCN=c1ccn(CCCCCCCCCCn2ccc(=NCCCCCCCC)cc2)cc1` [Octenidine], the IC50 came out at 1820 nM in data set [1] (setting [4]) and 1250 nM in data set [2] (setting [6]).

In the case of `COc1cccc(CC(=O)N2CCC(n3c(C)nc4ccc(F)cc43)CC2)c1` [MMV020081], the IC50 worked out at 1470 nM in data set [1] (setting [5]) and 29300 nM in data set [2].

Regarding Eseroline, the figures for the IC50 in data set [1] (setting [5]) and in data set [2] were 2300 nM and 1560 nM, respectively.

Turning to `O=C([O-])[C@H]([O-])[C@@H]([O-])C(=O)[O-].O=C([O-])[C@H]([O-])[C@@H]([O-])C(=O)[O-].[K+].[K+].[Sb+3].[Sb+3]` [Potassium antimonyl tartrate], the IC50 in data set [1] (setting [5]) turned out to be 10700 nM; in data set [2], 3630 nM.

Consider `COc1ccc(NC(=O)N2CCCCN3[C@H](CN(C)C)[C@H](c4ccc(C#Cc5ccccc5)cc4)[C@@H]3C2)cc1` [BRD-7929], for which, in data set [3], the “Score (safety)” value was found to be 0 and the “Score (PK)” value worked out at 0. In addition, the IC50 in data set [1] (setting [5]) is 3800 nM. Moreover, the IC50 in data set [2] worked out at 2200 nM.

Regarding Bismuth ethanedithiol, the IC50 was determined as 1500 nM in data set [1] (setting [5]) and 1300 nM in data set [2].

Take `CCCN1CCCC(c2ccc(Nc3nc(Nc4cc(F)ccc4C(N)=O)c4cc[nH]c4n3)c(OC)c2)C1` (stereo not drawn) [GSK1173862A]: the IC50 in data set [1] (setting [4]) was 345 nM; in data set [2] (setting [6]), 2400 nM.

Take `CCCN1CCC(c2ccc(Nc3nc(Nc4cc(F)ccc4C(N)=O)c4cc[nH]c4n3)c(OC)c2)CC1` [GSK1326255A]: the IC50 in data set [1] (setting [4]) worked out at 480 nM; in data set [2] (setting [6]), 8400 nM.

Regarding `C[C@]12CCC(=NOCCN)C[C@@H]1C(=O)C[C@@H]1[C@@H]2CC[C@]2(C)C(=O)CC[C@@H]12` [Istaroxime], the IC50 in data set [1] (setting [4]) was 170 nM.

For the compound `C/C=C1\NC(=O)[C@H]2CSSCC/C=C/[C@H](CC(=O)N[C@H](C(C)C)C(=O)N2)OC(=O)[C@H](C(C)C)NC1=O` [Romidepsin], the values for the IC50 in data set [1] (setting [4]) and in data set [2] (Plasmodium falciparum) were 5000 nM and 20000 nM, respectively.

For `CN(C)c1ccc2c(c1)Sc1cc(N(C)C)ccc1N2` [Leuco methylthioninium salt], in data set [3], the “Score (safety)” value is 0 and the “Score (PK)” value came out at 0. Moreover, the IC50 in data set [2] was 23200 nM.

On to `CC(C)C[C@H](NC(=O)[C@H](Cc1ccccc1)NC(=O)c1cnccn1)B(O)O` [Bortezomib], for which the concentration for half-maximal inhibition (IC50) in data set [2] (Plasmodium falciparum) is 2060 nM.

Regarding `CCCCN(CCCC)c1ccc2nc3ccc(=[N+](CCCC)CCCC)cc-3sc2c1` [PPA904], the values for the IC50 in data set [1] (setting [5]) and in data set [2] were 5050 nM and 2420 nM, respectively.

As for `Cl[TeH]1(Cl)(Cl)OCCO1` [Ammonium trichlorotellurate], the IC50 in data set [1] (setting [4]) worked out at 2200 nM; in data set [2] (setting [6]), 13700 nM.

For the compound Gramicidin, the IC50 is 70 nM in data set [1] (setting [5]) and 8 nM in data set [2]. Also, the “killing IC50 in words” value in data set [2] (gametocytes) is on record as “low nanomolar range”.
